Measurements reported in PMC13083723 (Patterns, 2026).
Residues, ends and D or L forms follow the SMILES beside them.

Tested on: Vero-E6 cells
Assay: cells
Type: cell-based
Conditions: for activation at 10 µM: Chlorocebus sabaeus, Vero C1008, 24 h, read-out: PL_Result

| Structure (SMILES) | activation at 10 µM [%] | PL_Result |
| --- | --- | --- |
| CCCCCCCN(CC)CCCC(O)c1ccc(NS(C)(=O)=O)cc1 (stereo not shown) [SPE_A74391928] | -5.8 | – |
| C=C(C)CN1CC[C@]23c4c5ccc(O)c4O[C@H]2c2[nH]c4ccccc4c2C[C@@]3(O)C1C5 [SPE_A75769826] | 35 | – |
| CCn1cc(C(=O)O)c(=O)c2cc(F)c(N3CCNC(C)C3)c(F)c21 (stereo not shown) [SPE_A75850590] | -1.78 | – |
| CCCNC(=O)N1N=C(c2ccc(N)cc2)c2cc3c(cc2C1C)OCO3 (stereo not shown) [SPE_A77218119] | 7.61 | – |
| CCCCCCCCCCCCCCCC(=O)OC(CC(=O)O)C[N+](C)(C)C (stereo not shown) [SPE_A77577770] | 3.73 | – |
| C[C@]12C=CC(=O)C=C1CCC1C2[C@@H](O)C[C@@]2(C)C1CC[C@]2(O)C(=O)COC(=O)CCC(=O)O (stereo partly shown) [SPE_A78391468] | 3.52 | – |
| COc1ccc(OC)c(C(O)CNC(=O)CN)c1 (stereo not shown) [SPE_A79981887] | 8.02 | – |
| Clc1ccc(C(OCCN2CCCCC2)c2ccccc2)cc1 (stereo not shown) [SPE_A80908310] | 72.5 | – |
| CC(C(=O)O)c1cccc(Oc2ccccc2)c1 (stereo not shown) [SPE_A81129465] | 5.17 | – |
| CC(C)CCN1c2nc(Nc3cc(F)c(O)c(F)c3)ncc2N(C)C(=O)C1C (stereo not shown) [SPE_A81370665] | -5.78 | – |
| Cc1ccc(N2CCN(CCC3NC(=O)c4ccccc43)CC2)cc1C (stereo not shown) [SPE_A82013137] | -6.23 | – |
| CC(=O)Oc1cc2c(s1)CCN(C(C(=O)C1CC1)c1ccccc1F)C2 (stereo not shown) [SPE_A83029242] | -4.76 | – |
| Cc1cc(C)cc(C(=O)OC2CC3CCC(C2)N3C)c1 (stereo not shown) [SPE_A84389633] | 9.75 | – |
| COC(=O)C1=C(C)NC(C)=C(C(=O)OCC(C)C)C1c1ccccc1[N+](=O)[O-] (stereo not shown) [SPE_A84465106] | 0.581 | – |
| O=C1NC(O)CCN1[C@@H]1O[C@H](CO)[C@@H](O)[C@H]1O (stereo partly shown) [SPE_A86248581] | -8.11 | – |
| O=C(NC(Cc1c[nH]c2ccccc12)C(=O)O)c1ccc(Cl)cc1 (stereo not shown) [SPE_A87983072] | -4.45 | – |
| COc1cc(Oc2ccnc3cc(OC)c(OC)cc23)ccc1NC(=O)NC(C)c1nccs1 (stereo not shown) [SPE_A88787317] | -0.267 | – |
| COc1ccc(CC2NCCc3cc(OC)c(OC)cc32)cc1OC (stereo not shown) [SPE_A91831168] | -15.9 | – |
| Cc1cccc(C)c1NC(=O)C(C)N (stereo not shown) [SPE_A92670106] | -8.17 | – |
| CC(=O)NC1[C@@H](O)OC(CO)[C@@H](O)[C@H]1O (stereo partly shown) [SPE_A92872453] | -7.39 | – |

| Structure (SMILES) | activation at 10 µM [%] | PL_Result |
| --- | --- | --- |
| CCC(Oc1ccc(Cl)cc1)C(=O)OC1CC2CCC(C1)N2C (stereo not shown) [SPE_A92933783] | -0.394 | – |
| Clc1ccc(C(Cn2ccnc2)OCc2c(Cl)cccc2Cl)c(Cl)c1 (stereo not shown) [SPE_A93353767] | 0.354 | – |
| NC1CCN(c2c(F)cc3c(=O)c(C(=O)O)cn(C4CC4)c3c2Cl)C1 (stereo not shown) [SPE_A93964801] | -2.8 | – |
| C[C@H]1CO[C@@H]2Cn3cc(C(=O)NCc4ccc(F)cc4F)c(=O)c(O)c3C(=O)N12 [SPE_A95114378] | -1.46 | – |
| CC1Cc2ccccc2N1NC(=O)c1ccc(Cl)c(S(N)(=O)=O)c1 (stereo not shown) [SPE_A95869247] | -11.5 | – |
| Cc1ccc(C)c(C(O)CNC(C)C)c1 (stereo not shown) [SPE_A98083480] | 3.82 | – |
| CCCc1c(-c2ccc(O)cc2)nn(-c2ccc(O)cc2)c1-c1ccc(O)cc1 [SPE_K00312224] | 1.41 | – |
| Cc1cc2nc3c(=O)[nH]c(=O)nc-3n(C)c2cc1C=O [SPE_K00486786] | -6.31 | – |
| CN(C)Cc1ccc(-c2nc3cccc4c3n2CCNC4=O)cc1 [SPE_K00615600] | 6.53 | – |
| CCC[C@H](N[C@@H](C)C(=O)N1[C@H](C(=O)O)C[C@@H]2CCCC[C@@H]21)C(=O)O [SPE_K00768353] | -9.94 | – |
| Nc1nc(NC2CC2)cc(-c2cccc(Cl)c2Cl)n1 [SPE_K01054709] | -5.46 | – |
| Cn1nc(-c2ccc(C(F)(F)F)cc2)nc2c(=O)n(C)c(=O)nc1-2 [SPE_K01129913] | -6.15 | – |
| COC(=O)CCC(=O)CN [SPE_K01292611] | -7.57 | – |
| Nc1ncnc2c1ncn2[C@@H]1O[C@H](CO)[C@@H](O)[C@H]1O [SPE_K01577834] | -3.02 | – |
| CCS(=O)(=O)c1cccc(-c2cc(C(=O)NC3CCN(C)CC3)c(C)c3[nH]c4ncc(C)cc4c23)c1 [SPE_K01683783] | -6.51 | – |
| CC(C)=CCC[C@](C)(O[C@@H]1O[C@H](CO)[C@@H](O)[C@H](O)[C@H]1O)[C@H]1CC[C@]2(C)[C@@H]1[C@H](O)C[C@@H]1[C@@]3(C)CC[C@H](O)C(C)(C)[C@@H]3CC[C@]12C [SPE_K01942833] | -8.36 | – |
| Cc1[nH]c2ccccc2c1CCNCc1ccc(/C=C/C(=O)NO)cc1 [SPE_K02130563] | -9.42 | – |
| COc1ccccc1C(=O)Nc1cccc(NC(=O)c2cccc(C)c2)c1 [SPE_K02160913] | -4.26 | – |
| C[C@@H](O)[C@H](N)C(=O)N1CCC[C@H]1C(=O)N1CCC[C@H]1C(=O)N[C@H](C(N)=O)[C@@H](C)O [SPE_K02206208] (H-TPPT-NH2) | – | -5.35 |
| CCCCc1ccc2[nH]c(NC(=O)OC)nc2c1 [SPE_K02407574] | -11.6 | – |

| Structure (SMILES) | activation at 10 µM [%] | PL_Result |
| --- | --- | --- |
| COc1ccc2[nH]c3nnc(C)c-3c(NCCOCCO)c2c1 [SPE_K02460719] | -9.99 | – |
| CC(=O)O[C@]1(C(C)=O)CC[C@H]2[C@@H]3C[C@H](C)C4=CC(=O)C=C[C@]4(C)[C@@]3(F)[C@@H](O)C[C@@]21C [SPE_K02528732] | -9.55 | – |
| O=C1N[C@@H]2[C@@H](O)[C@@H](O)[C@H](O)[C@@H](CO)N2C1=O [SPE_K02898090] | 7 | – |
| c1ccc(CNCc2ccc(CN3CCCNCCNCCCNCC3)cc2)nc1 [SPE_K03019184] | -0.191 | – |
| CCCCCCCCCCCCCCCCCCCCCCCCCCCCO [SPE_K03083257] | -15.2 | – |
| CCN1C[C@H](C)n2c(c(O)c3c(=O)n(Cc4ccc(F)c(Cl)c4)nc(C(=O)NC)c32)C1=O [SPE_K03128512] | 7.85 | – |
| CC[N+](CC)(CC)CCOc1ccc(/C=C/c2ccccc2)cc1 [SPE_K03128577] | 8.41 | – |
| O=C(Nc1c(Cl)cncc1Cl)c1ccc(OC(F)F)c(OCC2CC2)c1 [SPE_K03194791] | -2.86 | – |
| NCCCCCCCCCCNS(=O)(=O)c1cccc2c(Cl)cccc12 [SPE_K03301001] | 2.75 | – |
| COc1cc(C=O)c([N+](=O)[O-])cc1OC [SPE_K03564313] | 2.17 | – |
| C/C(=C\c1csc(C)n1)[C@@H]1C[C@@H]2O[C@]2(C)CCC[C@H](C)[C@H](O)[C@@H](C)C(=O)C(C)(C)[C@@H](O)CC(=O)N1 [SPE_K03601870] | -10.6 | – |
| CCN(CCNC(=O)Nc1ccccc1Br)c1cccc(C)c1 [SPE_K03665769] | -3.7 | – |
| Nc1ncc(Cc2ccc(Br)cc2)s1 [SPE_K03808106] | -0.249 | – |
| N[C@@H](CC(=O)N1CCn2c(nnc2C(F)(F)F)C1)Cc1n[nH]c2c(F)c(F)ccc12 [SPE_K04035716] | -1.31 | – |
| COc1c(O)cc2c(c1O)[C@@H]1O[C@H](CO)[C@@H](O)[C@H](O)[C@H]1OC2=O [SPE_K04176066] | 1.1 | – |
| CC(C)C[C@@H](C(=O)N[C@@H](Cc1ccc(OCc2ccccc2)cc1)C(=O)NC(C)(C)C)N(C)Cc1ccc(C(C)(C)C)cc1 [SPE_K04426574] | -3.22 | – |
| Clc1ccc(Cn2c(CN3CCCC3)nc3ccccc32)cc1 [SPE_K04704168] | 18 | – |
| C[C@H](NC(=O)/C(C#N)=C/c1cccc(Br)n1)c1ccccc1 [SPE_K05445342] | 3.2 | – |
